From patent US20170146538A1, “PRL-3 AS A BIOMARKER FOR THE PROGNOSIS OF CANCER AND A TARGET FOR THERAPY” (Agency for Science, Technology and Research, priority 2014, published 2017)

Legend:
Format in all cases: cell-based, human
[1] = system: TF1-ITD cells; assay: Western blot analysis of TF1-ITD cells upon FLT3 or Src inhibition; settings: various concentrations, 24 h, dose-dependent
Experimental: (§1) FIG. 2. […] Whole cell lysates were subjected to western blot analysis with indicated antibodies. GAPDH, loading control. A. (a-d) Western blot analysis of AML cells upon FLT3 inhibition. […] C. (a-b) Western blot analysis of AML cells upon Src inhibition.
(§2) Cells were lysed using modified RIPA buffer (50 mM Tris-HCl, 150 mM NaCl, 1% NP-40, pH 8.0, 1×protease inhibitor cocktail) and lysates were subjected to western blotting with indicated primary antibodies. Proteins recognized by the antibodies were detected using the Chemiluminescent Detection Kit (Pierce, Thermo Scientific, Rockford, Ill.).
(§3) Since STAT5 was known to be a critical downstream target of FLT3-ITD (Mizuki et al, 2000), we tested STAT5 expression level after treatment with FLT3-specific inhibitors; PKC412 or CEP-701 (Odgerel et al, 2007; Smith et al, 2004). […] We next examined whether FLT3-ITD-induced PRL-3 expression might be mediated by JAK or Src, two distinct upstream activators of STAT5 (Robinson et al, 2005; Spiekermann et al, 2003). […] To investigate the role of Src-mediated phosphorylation of STAT5 in FLT3-ITD positive AML cells. AML cells were treated with two distinct Src kinase inhibitors, SU6656 and PP2 (Blake et al, 2000; Nam et al, 2002).

[2] = system: MOLM-14 cells; assay: Western blot analysis of MOLM-14 cells upon FLT3 inhibition; settings: various concentrations, 24 h, dose-dependent
Experimental: as §1, §2, §3

[3] = system: TF1-PRL-3 cells; assay: MTS cell viability assay of TF1-PRL-3 cells treated with inhibitors; settings: 72 hr; for reduction in cell number compared to DMSO-treated control cells: 5 μM
From the text: FIG. 4. PRL-3 specifically activates c-Jun through ERK and JNK signaling pathways. A. SEAP reporter assay results measuring AP-1 activity in TF-1 cells overexpressing GFP (TF1-GFP) or GFP-PRL-3 (TF1-PRL-3) (mean±SD, n=3). B. (a-b) PRL-3 specifically upregulates c-Jun but not c-Fos. (a) Western blot analysis of TF1-GFP, TF1-PRL-3 and TF1-ITD cells. (b) Western blot analysis after knock-down of endogenous PRL-3 in TF1-ITD cells. GAPDH, loading control. NS, control non-silencing siRNA. C. (a-d) PRL-3-mediated upregulation of c-Jun is dependent on ERK and JNK pathways. (a) Western blot analysis after knock-down of endogenous PRL-3 in TF1-ITD and MOLM-14 cells. (b) Western blot analysis of TF1-GFP and TF1-PRL-3 cells. (c-d) Western blot analysis after knock-down of ERK1/2 or JNK in TF1-PRL-3 cells. GAPDH, loading control. NS, control non-silencing siRNA. D. […] Error bars represent the mean±SD from three independent experiments. AML Cells (1×10^4) were seeded into each well of 96-well tissue culture plates in 100 μl growth media and viable cells were measured after seeding with different inhibitors for 72 hr using the CellTiter^96 Aqueous cell proliferation assay kit. (Promega). Briefly, an aliquot of 20 μl MTS mixture was added at the indicated time of assay and reactions were performed at 37° C. for 2 hours. And absorbance was read at 490 nm wavelength using TECAN microplate reader. After establishment of linear relationship between cell numbers and absorbance from each cell line, acquired absorbance converted to cell number.

CO[C@@H]1[C@H](N(C)C(=O)c2ccccc2)C[C@H]2O[C@]1(C)n1c3ccccc3c3c4c(c5c6ccccc6n2c5c31)C(=O)NC4 [PKC412]
PRL-3 protein levels [1]: inhibited | phosphorylation of FLT3 [1]: inhibited | phosphorylation of STAT5 [1]: inhibited | phosphorylation of Src [1]: inhibited | PRL-3 protein levels [2]: inhibited | phosphorylation of FLT3 [2]: inhibited | phosphorylation of STAT5 [2]: inhibited | phosphorylation of Src [2]: inhibited

CC(C)(C)n1nc(-c2ccc(Cl)cc2)c2c(N)ncnc21 [PP2]
PRL-3 protein levels [1]: inhibited | phosphorylation of STAT5 [1]: inhibited | phosphorylation of Src [1]: inhibited

Oc1c2ccccc2c2c3c(cccc13)N=N2 [SP600125]
reduction in cell number compared to DMSO-treated control cells [3]: around 50%

CN(C)S(=O)(=O)c1ccc2c(c1)/C(=C/c1cc3c([nH]1)CCCC3)C(=O)N2 [SU6656]
PRL-3 protein levels [1]: inhibited | phosphorylation of STAT5 [1]: inhibited | phosphorylation of Src [1]: inhibited

N#CC(=C(/N)Sc1ccccc1N)/C(C#N)=C(\N)Sc1ccccc1N [U0126]
reduction in cell number compared to DMSO-treated control cells [3]: around 50%

COc1cc(/C=C/C(=O)CC(=O)/C=C/c2ccc(O)c(OC)c2)ccc1O [curcumin]
cell number, % of DMSO-treated cells ([3]; 15 μM): around 50%
